{"source": "patent US11453640B2", "about": "“Small molecules for disrupting the super elongation complex and inhibiting transcription elongation for cancer therapy” (NORTHWESTERN UNIVERSITY, priority 2018, dated 2022)", "system": "AFF1 and AFF4 occupancy on chromatin", "experiment": "ChIP-seq of AFF1 and AFF4 chromatin occupancy in HEK293T cells", "assay_type": "cell-based, human", "settings": "6 hr", "excerpt": "FIG. 1. Peptidomimetic identification of disruptors of the AFF4-CCNT1 interaction within the Super Elongation Complex. (A) Schematic for the identification of small molecule inhibitors of the AFF4-CCNT1 interaction using in silico high-throughput screening. Compounds from the ZINC database were docked with the AFF4-CCNT1 structure (4IMY) using a three-tier glide-docking algorithm, which led to 40 candidates. Residues forming the deep binding pocket of CCNT1 are labeled orange and residues of the AFF4 peptide are labeled red. (B) Validation screening identified KL-1 as a potential SEC disruptor using AlphaLISA screening. […] The Ki constants of both compounds were measured with the AlphaLISA assays. […] 5 μl, 10 and 20 μl cell lysates were loaded and the protein levels of AFF1, AFF4, CCNT1, CDK9 and Tubulin (load control) were determined by western blotting.\nChromatin Immunoprecipitation Sequencing. […] ChIP-seq reads were aligned to the Drosophila genome (UCSC dm3) or human genome (UCSC hgl9). Alignments were processed with Bowtie version 1.1.2, allowing only uniquely mapping reads with up to two mismatches within the 50 bp read. The resulting reads were extended to 150 bp toward the interior of the sequenced fragment and normalized to total reads aligned (reads per million, r.p.m.). […] P-values were calculated with a two-sided Kolmogorov-Smirnov test. […]", "data": [{"compound": "COc1cccc(C(=O)CC(=O)C(=O)Nc2cc(Cl)ccc2C)c1", "note": "[KL-1, N-(5-chloro-2-methylphenyl)-4-oxo-4-(3-methoxyphenyl)-2-oxobutanamide]", "values": [{"measurement": "chromatin occupancy of AFF1 and AFF4", "result": "decreased occupancy of AFF1 and AFF4"}]}]}
